Experimental data from ChEMBL document CHEMBL4706543, “Discovery of the first potent and selective αβ integrin inhibitor based on an amide-containing core” (Eur J Med Chem, 2020).
Values after ≈ are worked out from the molar mass of the structure shown.

Tests used:
[1] = species on record: Homo sapiens; assay: Selectivity ratio of IC50 for inhibition of integrin alphavbeta3 (unknown origin) to IC50 for inhibition of integrin alphavbeta5 (unknown origin)
[2] = target: T1, Integrin alpha-V/beta-3 (Homo sapiens, UniProt P05106+P06756); assay: Inhibition of integrin alphavbeta3 (unknown origin) by fluorescence polarization assay
[3] = target: T2, Integrin alpha-V/beta-5 (Homo sapiens, UniProt P06756+P18084); assay: Inhibition of integrin alphavbeta5 (unknown origin) by fluorescence polarization assay
[4] = target: T1, Integrin alpha-V/beta-3; assay: Inhibition of human alphavbeta3 integrin stably expressed in human K562 cells assessed as inhibition of cell adhesion to GST-LAP1 incubated for 30 mins by BCECF-AM staining based fluorescence assay
[5] = target: T2, Integrin alpha-V/beta-5; assay: Inhibition of human alphavbeta5 integrin stably expressed in human K562 cells assessed as inhibition of cell adhesion to vitronectin incubated for 30 mins by BCECF-AM staining based fluorescence assay
[6] = Passive permeability of compound in MDCK cells; type: ADME, cell-based, Canis lupus familiaris; conditions: dog, read-out: permeability
[7] = Clearance in rat microsomes assessed per gram tissue; type: ADME, Microsome
[8] = Clearance in rat hepatocytes based well stirred model; type: ADME, cell-based, Hepatocyte
[9] = Clearance in human microsomes assessed per gram tissue; type: ADME, Microsome
[10] = Clearance in human hepatocytes assessed per gram tissue; type: ADME, cell-based, Hepatocyte
[11] = Clearance in human hepatocytes based well stirred model; type: ADME, cell-based, Hepatocyte
[12] = Lipophilicity, log D of compound by chromatographic method; type: physicochemical
[13] = Clearance in rat microsomes based well stirred model; type: ADME, Microsome
[14] = Solubility of the compound by CAD method; type: physicochemical
[15] = Clearance in rat hepatocytes assessed per gram tissue; type: ADME, cell-based, Hepatocyte
[16] = Clearance in human microsomes based well stirred model; type: ADME, Microsome
[17] = target: Integrin alpha-V/beta-1 (Homo sapiens, UniProt P05556+P06756); assay: Inhibition of integrin alphavbeta1 (unknown origin) by fluorescence polarization assay; type: protein-complex assay
[18] = target: Integrin alpha-V/beta-6 (Homo sapiens, UniProt P06756+P18564); assay: Inhibition of integrin alphavbeta6 (unknown origin) by fluorescence polarization assay; type: protein-complex assay
[19] = target: Integrin alpha-V/beta-8 (Homo sapiens, UniProt P06756+P26012); assay: Inhibition of integrin alphavbeta8 (unknown origin) by fluorescence polarization assay; type: protein-complex assay
Chain of Integrin alpha-V/beta-8 (P06756 31-889 limits assumed): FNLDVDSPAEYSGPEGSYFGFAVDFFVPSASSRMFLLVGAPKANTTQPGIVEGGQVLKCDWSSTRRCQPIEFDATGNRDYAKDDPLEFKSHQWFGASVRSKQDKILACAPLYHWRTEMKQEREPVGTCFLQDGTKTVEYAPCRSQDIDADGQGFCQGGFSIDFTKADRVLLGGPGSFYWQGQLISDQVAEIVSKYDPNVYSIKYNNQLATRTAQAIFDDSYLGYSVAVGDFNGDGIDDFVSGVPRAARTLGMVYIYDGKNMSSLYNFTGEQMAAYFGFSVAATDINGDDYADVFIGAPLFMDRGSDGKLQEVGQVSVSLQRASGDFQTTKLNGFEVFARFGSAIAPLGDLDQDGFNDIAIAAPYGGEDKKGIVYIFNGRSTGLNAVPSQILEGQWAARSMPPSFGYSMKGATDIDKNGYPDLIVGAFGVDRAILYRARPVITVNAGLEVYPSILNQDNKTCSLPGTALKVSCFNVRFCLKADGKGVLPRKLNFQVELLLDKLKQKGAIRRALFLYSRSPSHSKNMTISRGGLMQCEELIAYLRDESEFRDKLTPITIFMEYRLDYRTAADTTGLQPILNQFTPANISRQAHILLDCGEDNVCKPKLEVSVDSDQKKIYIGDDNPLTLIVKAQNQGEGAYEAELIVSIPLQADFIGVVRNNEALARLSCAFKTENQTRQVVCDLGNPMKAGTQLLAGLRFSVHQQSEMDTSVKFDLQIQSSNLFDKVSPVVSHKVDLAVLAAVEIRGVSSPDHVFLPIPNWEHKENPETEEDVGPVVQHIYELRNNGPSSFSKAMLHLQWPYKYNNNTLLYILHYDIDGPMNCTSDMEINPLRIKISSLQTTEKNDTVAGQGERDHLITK
Chain of Integrin alpha-V/beta-8 (P06756 891-1048 limits assumed): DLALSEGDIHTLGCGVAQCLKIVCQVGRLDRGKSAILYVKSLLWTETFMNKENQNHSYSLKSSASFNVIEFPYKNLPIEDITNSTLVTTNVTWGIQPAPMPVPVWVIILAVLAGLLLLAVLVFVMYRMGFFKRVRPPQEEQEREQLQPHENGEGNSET
Chain of Integrin alpha-V/beta-8 (P26012 43-769 limits assumed): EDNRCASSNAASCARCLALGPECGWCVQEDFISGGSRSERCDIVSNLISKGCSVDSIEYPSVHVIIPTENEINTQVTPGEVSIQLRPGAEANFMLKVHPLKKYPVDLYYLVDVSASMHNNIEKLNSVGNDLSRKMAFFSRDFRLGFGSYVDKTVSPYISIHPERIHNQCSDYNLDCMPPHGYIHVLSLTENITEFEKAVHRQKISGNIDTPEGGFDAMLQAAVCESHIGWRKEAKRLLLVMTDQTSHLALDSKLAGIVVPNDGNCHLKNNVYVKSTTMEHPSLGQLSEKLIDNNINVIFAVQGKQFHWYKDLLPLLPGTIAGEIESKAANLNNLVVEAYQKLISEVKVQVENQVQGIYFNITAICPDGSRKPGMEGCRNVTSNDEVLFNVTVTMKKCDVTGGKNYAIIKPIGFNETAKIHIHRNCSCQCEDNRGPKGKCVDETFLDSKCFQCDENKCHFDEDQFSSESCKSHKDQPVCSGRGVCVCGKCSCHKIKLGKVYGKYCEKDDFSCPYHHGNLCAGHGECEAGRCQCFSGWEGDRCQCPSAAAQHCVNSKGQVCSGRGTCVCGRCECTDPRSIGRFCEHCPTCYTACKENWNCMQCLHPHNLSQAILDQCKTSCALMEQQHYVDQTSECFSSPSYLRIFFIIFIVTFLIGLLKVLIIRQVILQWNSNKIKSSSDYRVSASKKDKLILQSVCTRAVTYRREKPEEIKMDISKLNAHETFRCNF

T2 sequence (P06756 31-889 limits assumed): as the sequence (P06756 31-889 limits assumed) above
T2 sequence (P06756 891-1048 limits assumed): as the sequence (P06756 891-1048 limits assumed) above
T2 sequence (P18084 24-799 limits assumed): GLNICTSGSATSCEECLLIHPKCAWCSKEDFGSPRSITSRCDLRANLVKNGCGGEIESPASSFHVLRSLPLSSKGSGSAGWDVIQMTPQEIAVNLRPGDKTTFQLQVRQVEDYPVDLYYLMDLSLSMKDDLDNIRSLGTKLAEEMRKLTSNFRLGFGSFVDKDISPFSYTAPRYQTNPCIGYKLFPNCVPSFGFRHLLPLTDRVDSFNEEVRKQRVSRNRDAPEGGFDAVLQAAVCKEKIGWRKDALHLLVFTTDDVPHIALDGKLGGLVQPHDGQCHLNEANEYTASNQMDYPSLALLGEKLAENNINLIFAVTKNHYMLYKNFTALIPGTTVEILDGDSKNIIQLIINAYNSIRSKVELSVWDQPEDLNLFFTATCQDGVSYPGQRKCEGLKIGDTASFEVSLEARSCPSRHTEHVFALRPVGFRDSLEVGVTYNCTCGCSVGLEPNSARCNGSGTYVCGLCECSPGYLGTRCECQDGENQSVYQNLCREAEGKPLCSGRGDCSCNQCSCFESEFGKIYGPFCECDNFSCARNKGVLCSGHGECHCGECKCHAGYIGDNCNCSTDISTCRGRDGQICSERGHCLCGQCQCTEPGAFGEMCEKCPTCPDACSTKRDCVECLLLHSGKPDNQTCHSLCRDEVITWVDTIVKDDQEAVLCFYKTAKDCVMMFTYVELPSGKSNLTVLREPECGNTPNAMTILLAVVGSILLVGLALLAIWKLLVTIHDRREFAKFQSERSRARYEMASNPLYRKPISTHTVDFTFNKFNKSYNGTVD
T1 sequence (P05106 27-788 limits assumed): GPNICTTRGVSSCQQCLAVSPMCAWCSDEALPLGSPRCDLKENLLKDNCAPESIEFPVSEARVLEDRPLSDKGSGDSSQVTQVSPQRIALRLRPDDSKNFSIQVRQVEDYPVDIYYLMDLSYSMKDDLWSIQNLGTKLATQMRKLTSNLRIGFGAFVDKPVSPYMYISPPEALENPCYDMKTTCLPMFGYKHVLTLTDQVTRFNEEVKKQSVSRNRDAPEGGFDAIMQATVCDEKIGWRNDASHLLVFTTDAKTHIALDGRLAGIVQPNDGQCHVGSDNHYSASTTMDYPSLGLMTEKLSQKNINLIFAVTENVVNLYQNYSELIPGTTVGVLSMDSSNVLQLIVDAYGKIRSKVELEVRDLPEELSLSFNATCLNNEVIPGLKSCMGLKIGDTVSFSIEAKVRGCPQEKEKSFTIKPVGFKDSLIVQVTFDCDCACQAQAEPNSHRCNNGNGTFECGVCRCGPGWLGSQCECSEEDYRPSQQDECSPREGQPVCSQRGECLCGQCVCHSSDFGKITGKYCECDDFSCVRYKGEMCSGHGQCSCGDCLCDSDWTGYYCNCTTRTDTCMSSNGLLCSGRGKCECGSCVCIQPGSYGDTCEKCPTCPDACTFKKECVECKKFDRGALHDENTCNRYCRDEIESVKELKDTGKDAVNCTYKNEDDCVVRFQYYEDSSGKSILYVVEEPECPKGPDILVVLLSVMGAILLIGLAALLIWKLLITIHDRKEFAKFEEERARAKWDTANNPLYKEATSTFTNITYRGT
T1 sequence (P06756 31-889 limits assumed): as the sequence (P06756 31-889 limits assumed) above
T1 sequence (P06756 891-1048 limits assumed): as the sequence (P06756 891-1048 limits assumed) above
Chain of Integrin alpha-V/beta-6 (P06756 31-889 limits assumed): as the sequence (P06756 31-889 limits assumed) above
Chain of Integrin alpha-V/beta-6 (P06756 891-1048 limits assumed): as the sequence (P06756 891-1048 limits assumed) above
Chain of Integrin alpha-V/beta-6 (P18564 22-788 limits assumed): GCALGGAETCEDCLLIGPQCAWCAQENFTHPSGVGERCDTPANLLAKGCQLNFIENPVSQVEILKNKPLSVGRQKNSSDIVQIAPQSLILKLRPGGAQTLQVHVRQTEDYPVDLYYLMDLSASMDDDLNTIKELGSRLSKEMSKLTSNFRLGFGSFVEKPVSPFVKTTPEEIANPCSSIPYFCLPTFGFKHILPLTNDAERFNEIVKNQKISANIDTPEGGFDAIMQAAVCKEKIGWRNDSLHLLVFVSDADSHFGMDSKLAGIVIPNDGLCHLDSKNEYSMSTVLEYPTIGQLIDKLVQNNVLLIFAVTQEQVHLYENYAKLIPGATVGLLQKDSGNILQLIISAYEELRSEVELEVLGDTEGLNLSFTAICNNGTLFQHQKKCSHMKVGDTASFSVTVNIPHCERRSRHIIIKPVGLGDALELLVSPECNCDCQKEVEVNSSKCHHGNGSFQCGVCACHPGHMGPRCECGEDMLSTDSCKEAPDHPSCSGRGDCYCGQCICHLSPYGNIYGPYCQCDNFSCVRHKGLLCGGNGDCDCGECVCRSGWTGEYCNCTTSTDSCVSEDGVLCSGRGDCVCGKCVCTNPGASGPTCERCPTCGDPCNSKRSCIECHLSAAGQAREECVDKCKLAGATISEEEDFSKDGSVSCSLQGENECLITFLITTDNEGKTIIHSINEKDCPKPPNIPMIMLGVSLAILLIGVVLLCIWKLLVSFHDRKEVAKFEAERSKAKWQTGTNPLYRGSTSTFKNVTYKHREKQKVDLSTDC

| Ratio IC50 [1] | IC50 [2] | IC50 [3] | Compound | further results |
| --- | --- | --- | --- | --- |
| 320 | 2000 nM | 6.31 nM | O=C(O)C[C@H](C(=O)N1CC[C@@H](CCc2ccc3c(n2)NCCC3)C1)c1cccc(-c2ccccc2)c1 |  |
| 4 | 39.8 nM | 10 nM | CNc1cccc(CCOc2ccc3c(ccn3CCC(=O)O)c2)n1 |  |
| 10 | 12600 nM | 1260 nM | O=C(O)C[C@H](C(=O)N1CC[C@@H](CCc2ccc3c(n2)NCCC3)C1)c1ccccc1Br |  |
| 800 | 6310 nM | 7.94 nM | O=C(O)C[C@H](C(=O)N1CC[C@@H](CCc2ccc3c(n2)NCCC3)C1)c1cccc(C2CC2)c1 | IC50 [4]: > 10000 nM; IC50 [5]: 316 nM |
| 800 | 5010 nM |  | O=C(O)C[C@H](C(=O)N1CC[C@@H](CCc2ccc3c(n2)NCCC3)C1)c1cccc(C(F)(F)F)c1 | Papp [6]: 29.5 ×10⁻⁶ cm/s; clearance [7]: < 0.46 mL/min/g; CLH [8]: 68 mL/min/kg; IC50 [4]: > 10000 nM; clearance [9]: < 0.4 mL/min/g; CLH [10]: < 0.45 mL/min/g; CLH [11]: < 7 mL/min/kg; chromatographic logD [12]: 5.05; clearance [13]: < 14 mL/min/kg; IC50 [5]: 794 nM; solubility [14]: 141 µg/mL (≈ 297 µM); CLH [15]: 14.3 mL/min/g; clearance [16]: < 6 mL/min/kg |
| 125 | 3160 nM | 25.1 nM | O=C(O)C[C@H](C(=O)N1CC(CCc2ccc3c(n2)NCCC3)C1)c1ccccc1 |  |
| 400 | 3980 nM | 10 nM | Cc1cc(C)cc([C@H](CC(=O)O)C(=O)N2CC[C@@H](CCc3ccc4c(n3)NCCC4)C2)c1 | IC50 [4]: > 10000 nM; IC50 [5]: 501 nM |
| 100 | 316 nM | 3.16 nM | O=C(O)C[C@H](C(=O)N1CC[C@@H](CCc2ccc3c(n2)NCCC3)C1)c1cc(Br)cs1 |  |
| 320 | 1580 nM | 5.01 nM | O=C(O)C[C@H](C(=O)N1CC[C@@H](CCc2ccc3c(n2)NCCC3)C1)c1cc(Br)cc(Br)c1 |  |
| 25 | 5010 nM | 200 nM | CN(CCCCc1ccc2c(n1)NCCC2)C(=O)[C@@H](CC(=O)O)c1ccccc1 |  |
| 200 | 631 nM | 3.16 nM | Cc1csc([C@H](CC(=O)O)C(=O)N2CC[C@@H](CCc3ccc4c(n3)NCCC4)C2)c1 |  |
| 250 | 1000 nM | 3.98 nM | O=C(O)C[C@H](C(=O)N1CC[C@@H](CCc2ccc3c(n2)NCCC3)C1)c1ccccc1 | IC50 [17]: 3980 nM; IC50 [18]: > 79400 nM; IC50 [19]: > 79400 nM |
| 125 | 1260 nM | 10 nM | CN1CCN(c2cccc([C@H](CC(=O)O)C(=O)N3CC[C@@H](CCc4ccc5c(n4)NCCC5)C3)c2)CC1 |  |
| 160 | 1260 nM | 7.94 nM | O=C(O)C[C@H](C(=O)N1CC[C@@H](CCc2ccc3c(n2)NCCC3)C1)c1cccc(C2=CCCC2)c1 |  |
| 125 | 501 nM | 3.98 nM | O=C(O)C[C@H](C(=O)N1CC[C@@H](CCc2ccc3c(n2)NCCC3)C1)c1ccsc1 |  |
| 100 | 1580 nM | 15.8 nM | O=C(O)C[C@H](C(=O)N1CC[C@@H](CCc2ccc3c(n2)NCCC3)C1)c1cccc(N2CCNCC2)c1 |  |

| Ratio IC50 [1] | IC50 [2] | IC50 [3] | Compound | further results |
| --- | --- | --- | --- | --- |
| 40 | 158 nM | 3.98 nM | O=C(O)C[C@H](C(=O)N1CC[C@@H](CCc2ccc3c(n2)NCCC3)C1)c1cccc(O)c1 |  |
| 400 | 1580 nM | 3.98 nM | Cc1cccc([C@H](CC(=O)O)C(=O)N2CC[C@@H](CCc3ccc4c(n3)NCCC4)C2)c1 | Papp [6]: 17.6 ×10⁻⁶ cm/s; clearance [7]: < 0.46 mL/min/g; CLH [8]: 46 mL/min/kg; IC50 [4]: 6310 nM; clearance [9]: < 0.4 mL/min/g; CLH [10]: < 0.45 mL/min/g; CLH [11]: < 7 mL/min/kg; chromatographic logD [12]: 4.16; clearance [13]: < 14 mL/min/kg; IC50 [5]: 79.4 nM; solubility [14]: 142 µg/mL (≈ 337 µM); CLH [15]: 3.2 mL/min/g; clearance [16]: < 6 mL/min/kg |
| 160 | 501 nM | 3.16 nM | N#Cc1cccc([C@H](CC(=O)O)C(=O)N2CC[C@@H](CCc3ccc4c(n3)NCCC4)C2)c1 | Papp [6]: 5.7 ×10⁻⁶ cm/s; clearance [7]: < 0.46 mL/min/g; CLH [8]: 30 mL/min/kg; clearance [9]: < 0.4 mL/min/g; CLH [10]: < 0.45 mL/min/g; CLH [11]: < 7 mL/min/kg; chromatographic logD [12]: 3.69; clearance [13]: < 14 mL/min/kg; solubility [14]: 192 µg/mL (≈ 444 µM); CLH [15]: 1.4 mL/min/g; clearance [16]: < 6 mL/min/kg |
| 100 | 794 nM | 7.94 nM | O=C(O)C[C@H](C(=O)N1CC(CCCc2ccc3c(n2)NCCC3)C1)c1ccccc1 |  |
| 200 | 1260 nM | 6.31 nM | O=C(O)C[C@H](C(=O)N1CC[C@@H](CCc2ccc3c(n2)NCCC3)C1)c1ccc(Br)cc1 |  |
| 500 | 2510 nM | 5.01 nM | C=C(C)c1cccc([C@H](CC(=O)O)C(=O)N2CC[C@@H](CCc3ccc4c(n3)NCCC4)C2)c1 | IC50 [4]: > 10000 nM; IC50 [5]: 316 nM |
| 13 | 6310 nM | 501 nM | O=C(O)C[C@H](C(=O)N1CCCC(CCc2ccc3c(n2)NCCC3)C1)c1ccccc1 (some centres not stated) |  |
| 20 | 200 nM | 10 nM | O=C(O)C[C@H](C(=O)N1CC[C@@H](CCc2ccc3c(n2)NCCC3)C1)c1ccc(Br)s1 |  |
| 5 | 10000 nM | 2000 nM | O=C(O)C[C@@H](C(=O)N1CC[C@@H](CCc2ccc3c(n2)NCCC3)C1)c1cccc(Br)c1 |  |
| 160 | 2000 nM | 12.6 nM | O=C(O)C[C@H](C(=O)N1CC[C@@H](CCc2ccc3c(n2)NCCC3)C1)c1cccc(N2CCOCC2)c1 |  |
| 6 | 251 nM | 39.8 nM | O=C(O)CCn1ccc2cc(OCCCNc3ccccn3)ccc21 |  |
| 200 | 2510 nM |  | O=C(O)C[C@H](C(=O)N1CC[C@@H](CCc2ccc3c(n2)NCCC3)C1)c1cccc(C2CCCC2)c1 |  |
| 400 | 1000 nM | 2.51 nM | O=C(O)C[C@H](C(=O)N1CC[C@@H](CCc2ccc3c(n2)NCCC3)C1)c1cccc(Cl)c1 | IC50 [4]: 6310 nM; IC50 [5]: 126 nM |
| 200 | 794 nM | 3.98 nM | O=C(O)C[C@H](C(=O)N1CC[C@@H](CCc2ccc3c(n2)NCCC3)C1)c1cccc(Br)c1 |  |
| 25 | 158 nM | 6.31 nM | Cc1ccc([C@H](CC(=O)O)C(=O)N2CC[C@@H](CCc3ccc4c(n3)NCCC4)C2)s1 |  |
| 160 | 794 nM | 5.01 nM | O=C(O)C[C@H](C(=O)N1CC[C@@H](CCc2ccc3c(n2)NCCC3)C1)c1cccs1 |  |
